Laboratory results published in US10100083B2, “Leukemia stem cell targeting ligands and methods of use” (The Regents of the University of California, priority 2011, dated 2018).
Positions of bridges follow the written chain, without caps; N, C: chain ends. No end group written: not given here.

Tests used:
[1] = Balb/c mice, follow-up for up to 10 days
in vivo = settings: Balb/c, mouse
CLL1 [2] = assay: Binding of phage displaying the peptide to A549 cells expressing CLL1-RFP (anti-M13 antibody-FITC); settings: anti-M13 monoclonal antibody-FITC
Method: (§1) FIGS. 1A-D illustrate identification of peptides that target CLL1. A. Panning strategy to identify CLL1-targeting peptides. Before each round of panning, the C7C phage peptide display library was subtracted with various cells to remove phage that could bind to those confounding cell types. B. Binding of phage to cells expressing CLL1. A549 cells were transfected with CLL1-RFP (a) or RFP (b, control), incubated with phage expressing the […] (SEQ ID NO: 17)peptide, and probed with anti-M13 phage antibody conjugated with FITC. Binding of phage to A549 cells expressing CLL1-RFP (c), but not to A549 cells expressing RFP (d) was observed. C. Binding of the […] (SEQ ID NO: 17)peptide to CLL1. Biotinylated […] (SEQ ID NO: 17) peptide was synthesized and used to probe PBMC, A549 transfected with vector alone, and A549 cells expressing CLL1. […] Upper panel: cells were probed with streptavidin (SA)-FITC. Lower panels: cells were probed with CLL1-targeting peptide and SA-FITC. D. Binding specificity of the […] (SEQ ID NO: 17)peptide. Cells of various origins were incubated with the biotinylated CLL1-targeting peptide or a bladder cancer-specific peptide, named PLZ4 as a negative control, and probed with SA-PE.
(§2) After panning, a total of 36 phage clones were sequenced. […] Expression of CLL1-RFP or RFP could be visualized by the appearance of red fluorescence. […]
Target sequence in this assay (Q5QGZ9 65-265 limits assumed): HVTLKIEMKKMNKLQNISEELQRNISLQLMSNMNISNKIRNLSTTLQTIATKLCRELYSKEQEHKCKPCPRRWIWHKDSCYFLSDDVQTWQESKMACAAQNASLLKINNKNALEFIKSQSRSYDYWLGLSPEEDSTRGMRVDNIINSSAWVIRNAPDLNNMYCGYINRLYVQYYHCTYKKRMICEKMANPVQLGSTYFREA

[3] = test system: PBMC, parental A549, K562 or other cell lines; assay: Flow cytometry binding of biotinylated peptide to PBMC, parental and other cell lines (binding specificity)
Method: (§3) One peptide, CLL1-L1, with the sequence of […] (SEQ ID NO: 17) was synthesized for further analysis. To determine the binding specificity, cell lines purchased from the American Type Culture Collection (ATCC), such as PC3N (Prostate), HepG2 (Liver), Skov-3 (Ovarian), 5637 (Bladder), HCT-116 (Colon), RPMI8226 (Myeloma), A549 (Lung), K562 (Leukemia), A549 and K562 cells, both expressing CLL1, were incubated with CLL1-L1 conjugated to biotin and probed with streptavidin-phycoerythrin (PE) (excitation 480 nm, emission 578 nm) (FIG. 1D). A bladder cancer-specific ligand, PLZ4, conjugated to biotin was used as the negative control.
After panning, a total of 36 phage clones were sequenced. After alignment, two consensus sequences were identified: CXLR(S/T)AAVC (SEQ ID NO: 34) and CXLRSSGPC (SEQ ID NO: 24) (Table 1), in which “X” represents several amino acids that can be replaceable. Serine (S) and threonine (T) belong to the same hydrophilic class of amino acids with only one methyl group difference. Of these two major sequences, one common motif exists: “LR(S/T)”. To confirm that these ligands indeed bind to CLL1, A549 cells were transfected with a CCL1-RFP expression vector (FIG. 1B panel a) or RFP (FIG. 1B panel b, the control). Expression of CLL1-RFP or RFP could be visualized by the appearance of red fluorescence. For subsequent in depth characterization, we selected the peptide […] (SEQ ID NO: 17) instead of […] (SEQ ID NO: 23) because aspartic acid (D) is more hydrophilic than proline (P), which makes the peptide more water soluble and easier to synthesize and manipulate. A549 cells expressing CCL1-RFP or RFP alone were incubated with phage displaying the […] (SEQ ID NO: 17) peptide, and probed with anti-M13 monoclonal antibody-FITC conjugate. […] This peptide is named CLL1-L1 and was used for all subsequent experiments. Flow cytometry studies were also performed to determine cell binding. CLL1-L1 was conjugated to biotin through the polyethylene glycol (PEG) linker. Cells were incubated with biotinylated CLL1-L1 and probed with streptavidin-PE. […]

[4] = test system: A549 cells expressing RFP; assay: Binding of phage displaying the peptide to control A549 cells expressing RFP
Method: as §1, §2

CLL1 [5] = assay: Flow cytometry binding of biotinylated peptide to cells expressing CLL1
Method: as §3
Target sequence in this assay (Q5QGZ9 44-265 limits assumed): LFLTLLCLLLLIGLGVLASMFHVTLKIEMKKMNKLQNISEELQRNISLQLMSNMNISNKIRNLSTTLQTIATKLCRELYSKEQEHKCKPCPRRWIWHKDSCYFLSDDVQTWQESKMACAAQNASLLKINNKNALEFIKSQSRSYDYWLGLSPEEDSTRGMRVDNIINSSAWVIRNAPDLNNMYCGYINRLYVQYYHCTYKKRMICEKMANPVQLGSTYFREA
After panning, a total of 36 phage clones were sequenced. After alignment, two consensus sequences were identified: CXLR(S/T)AAVC (SEQ ID NO: 34) and CXLRSSGPC (SEQ ID NO: 24) (Table 1), in which “X” represents several amino acids that can be replaceable. Serine (S) and threonine (T) belong to the same hydrophilic class of amino acids with only one methyl group difference. Of these two major sequences, one common motif exists: “LR(S/T)”. To confirm that these ligands indeed bind to CLL1, A549 cells were transfected with a CCL1-RFP expression vector (FIG. 1B panel a) or RFP (FIG. 1B panel b, the control). Expression of CLL1-RFP or RFP could be visualized by the appearance of red fluorescence. For subsequent in depth characterization, we selected the peptide […] […]

[6] = streptavidin-PE, flow cytometry (FIG. 1C)

Compound	Weight changes [1]	MTD (in vivo) [mg/kg]	Phage detected on cell surface (CLL1 [2])	Binding to parental A549, K562 or other cell lines ([3]; SA-PE (FIG. 1D))	Binding to A549 control cells [3, 6]	Binding to PBMC [3, 6]	Phage detected on cell surface [4]	Binding to A549 and K562 cells that expressed recombinant CLL1 (CLL1 [5]; SA-PE (FIG. 1D))	Binding to A549 cells expressing CLL1 (CLL1 [5]; streptavidin probe, flow cytometry (FIG. 1C))
COc1cccc2c1C(=O)c1c(O)c3c(c(O)c1C2=O)C[C@@](O)(C(C)=O)C[C@@H]3O[C@H]1C[C@H](N)[C@H](O)[C@H](C)O1 [free DNR, daunorubicin]	no significant weight changes	10	–	–	–	–	–	–	–
CDLRSAAVC (disulfide 1-9 (inferred)) [CLL1-L1, CLL1-targeting peptide from C7C phage display library, cyclized via the two cysteines]	–	–	detected on the surface	not	No significant binding	No significant binding	not on cells expressing RFP	bound	significant binding
